Measured values taken from patent US9381208B2, “Structure and use of 5′ phosphate oligonucleotides” (Rheinische Friedrich-Wilhelms-Universität, priority 2006, dated 2016).

Legend:
[1] = test system: B16 melanoma lung metastases; assay: B16 melanoma lung metastases model; type: in vivo; settings: C57BL/6 mice, 50 μg complexed with jetPEI intravenously on day 3, 6 and 9, day 14, compared with PolyA
Procedure: (a) Therapeutic regimen: Mice were challenged with 4×10^5 B16 melanoma cells intravenously to experimentally induce lung metastases on day 0. Mice were treated intravenously with the indicated nucleic acid complexed to jetPEI™ on day 3, 6 and 9 as indicated. 14 days after challenge, the number of macroscopically visible melanoma metastases on the surface of the lungs was counted with the help of a dissecting microscope or the lung weight was calculated.
(b) Groups of five C57BL/6 mice were challenged with 4×10^5 B16 and treated as described. Mice were treated intravenously on day 3, 6 and 9 with 50 μg of OH-2.2, 50 μg 3p-2.2, 50 μg 3p-GC (a nonspecific double-stranded 3p-RNA) or 50 μg CpG oligonucleotide ligand, each complexed with jetPEI™. Control groups received 100 μl of Glucose 5% or 50 μg of PolyA complexed with jetPEI™. Tumor growth was assessed after 14 days by measuring the weight of the lungs. Shown are lung weights of five individual mice. The mean lung weight is indicated by a column. […]
For the induction of lung metastases we injected 4×10^5 B16 melanoma cells into the tail vein of the indicated mice. […] 14 days after challenge the number of macroscopically visible melanoma metastases on the surface of the lungs was counted with the help of a dissecting microscope or, in case of massive tumor load, lung weight was determined. […]

[2] = Blood cell counts (leucocytes, platelets) after injection; type: in vivo, C57BL/6 mice; settings: 50 μg, 48 hours
Procedure: (b & c) C57BL/6 mice were injected with 50 μg 3p-2.2 complexed with jetPEI™. Blood was collected after 48 h and processed as EDTA […] for measurement of leucocytes (WBC) and platelets. Blood cell counts were performed at the Central Laboratory of the Department of Internal Medicine, University of Munich at the indicated time point (P**<0.01 between the platelet count of 3p-2.2 and CpG). Data are shown as means±SEM of 2 independent experiments.

[3] = test system: PBMC; assay: IFN-α in PBMC transfected with chemically synthesized 5′ triphosphate RNA (ELISA); type: cell-based, human; settings: oligonucleotide alone, 0.2 μg, 24 hours
Procedure: PBMC were transfected with chemically synthesized single-strand oligonucleotides alone or together with their complementary antisense strand (AS) by using Lipofectamine and incubated in the presence or absence of chloroquine (Chl). CpG2331 was used as a positive and chloroquine-sensitive control for IFN-α induction in PBMC.
The isRNA9.2 (Hornung V et al. (2005) Nat Med 11(3):263-70) generated by in vitro transcription was used a positive control (IVT2-3PRNA). CpG2331 is a TLR9 ligand. PBMC (400,000 cells per well) were transfected with oligonucleotides by using Lipofectamin (0.5 μl, 0.2 μg oligonucleotide). Hybridization of complementary strands was performed by heating 4 μg total RNA in 20 μl of buffer (final 50 mM Tris/HCl pH7.5 100 mM NaCl) up to 70° C. followed by cooling down to 40° C. Chloroquine was used to block TLR-mediated nucleic acid recognition (2.5 μg/ml).

[4] = test system: PDC; assay: IFN-α production in human PDC (ELISA); type: cell-based; settings: 24 hours
Procedure: Human PBMC were prepared from whole blood donated by young healthy donors by Ficoll-Hypaque density gradient centrifugation (Biochrom, Berlin, Germany). PDC were isolated by MACS using the blood dendritic cell Ag (BCDA)-4 dendritic cell isolation kit from Miltenyi Biotec (Bergisch-Gladbach, Germany). Briefly, PDC were labelled with anti-BDCA-4 Ab coupled to colloidal paramagnetic microbeads and passed through a magnetic separation column twice (LS column, then MS column; Miltenyi Biotec). The purity of isolated PDC (lineage-negative, MHC-II-positive and CD123-positive cells) was above 95%. Before isolation of monocytes, PDC were depleted by MACS (LD column; Miltenyi Biotec) and then monocytes were isolated using the monocyte isolation kit II (Miltenyi Biotec). […] PDC cultures were additionally supplemented with 10 ng/ml IL-3 (R&D Systems). […] Vero (African green monkey kidney) and HEK 293T (human embryonic kidney) cells were maintained in Dulbecco's modified Eagle's medium supplemented with antibiotics and 5% or 10% foetal calf serum, respectively. BSR cells were propagated in Glasgow minimal essential medium supplemented with 10% newborn calf serum, phosphate broth, amino acids and antibiotics.
Human IFN-α was assessed in cell culture supernatants using the IFN-α module set (Bender MedSystems, Graz, Austria). The murine IP-10 ELISA was from Biosource (Solingen, Germany), the murine IFN-[…] ELISA was from PBL Biomedical Laboratories (Piscataway, USA). All ELISA procedures were performed, according to manufacturers' recommendations.

[5] = test system: human primary monocytes; assay: IFN-α production in human primary monocytes transfected with RNA (ELISA); type: cell-based; settings: 200 ng RNA transfected, 24 hours, ELISA

Substance: 5′-TCCATGACGTTCCTGACGTT-3′ [CpG 1826]
- lung metastases [1]: significant reduction of lung metastases, but to a lesser extent than 3p-2.2
- thrombocytopenia [2]: more apparent

Substance: 5′-pppAGCUUAACCUGUCCUUCAA-3′ [9.2s (IVT)]
- IFN-α induction in PBMC [3]: induced IFN-α
- IFN-α production in PDC [4]: produced IFN-α
- IFN-α production in monocytes [5]: strongly induced IFN-α production
